Patent publication US9181266B2, “2-piperidin-1-yl-acetamide compounds for use as tankyrase inhibitors” (NOVARTIS AG, priority 2011, dated 2015)

Columns and labels:
[1] = system: Wnt ligand-induced signaling in HEK293 cells; assay: Wnt-responsive Super-TOpFlash (STF) luciferase reporter gene assay; type: cell-based; settings: Homo sapiens, Wnt3A condition medium
Protocol: Cellular Reporter Gene Assay to Determine Compound Inhibition of Wnt Signaling Activity
Compound activity in inhibiting Wnt ligand-induced signaling was measured using a Wnt-responsive Super-TOpFlash (STF) luciferase reporter gene assay in HEK293 cells. On day 1 of the assay, cells were plated at a density of 8000 cells per well of 384-well plate in 25 μl medium containing 5% fetal bovine serum (FBS). On the second day, […] condition medium (CM) produced from mouse L cells was added to the cells to induce Wnt signaling, followed by addition of 5 μL of compounds each well in 10-point serial dilution. On the third day, the luciferase activity was measured by the Bright-Glo™ Luciferase Assay System following manufacture's protocol (Promega, E2620). The Inhibition was calculated as: (Maximum Wnt-induced signaling−Sample)/(Maximum Wnt-induced signaling−Background)*100. “Maximum Wnt-induced signaling” is the STF signal level induced by 20% Wnt3A CM without compound; and “Background” is the STF signal level without the addition of Wnt3A CM or compound.

[2] = system: Axin2 protein in SW480 cells; assay: Cellular ELISA assay of Axin2 protein stabilization; type: cell-based; settings: Homo sapiens, 24 hrs, read-out: Axin AC50
Protocol: Cellular ELISA Assay to Determine Compound Effect on Stabilizing the Axin2 Protein Compound activity in stabilizing the Axin2 protein was measured by Sandwich Enzyme-Linked Immuosorbent (ELISA) assay in the colorectal cell line SW480. 30,000 SW480 cells were seeded per well in 96-well plate and incubated overnight prior to compound treatment. […] Cells were then washed with 100 μL of cold Phosphate Buffer Saline (PBS), and lysed in 125 μl of cold 1× lysis buffer (Cell Signaling Technology, 9803) supplemented with Protease inhibitor (Roche, 11836170) and Phosphatase inhibitors (Sigma, P2850, P5726). For the ELISA assay, anti Axin-2 capture antibody (Strategic Diagnostics) antibody was diluted to a concentration of 1 μg/ml (1:1000) in Carbonate Coating buffer, pH 9.2 (Sigma, C3041-50CAP). […], of the diluted anti Axin-2 capture antibody per well was then used to coat the 96-well ELISA plate (Thermo Electron Corp., MicroLite 1 flat bottom plate #7571) overnight at 4° C. […] After blocking, plates were then washed three times with 300 μl/well of wash solution. 100 μL of prepared SW480 cell lysate was then added to each well and incubated at room temperature for 2 hours while shaking gently. After washing, 100 μL of Biotinylated anti-Axin2 antibody (CST, 2151) was added to each well and incubated room temperature for 2 hours. 100 μL of Streptavidin-HRP (R&D systems, DY998) diluted 1:200 in 1% BSA/PBS was then added in each well and incubate for 30 mins at R/T in the dark.

[3] = system: Non-small lung cancer ABC-1 cells; assay: Cellular proliferation assay (CellTiter-Glo); type: cell-based; settings: Homo sapiens, 72 h; ABC-1 cells, 3 days of compound treatment; read-out: ABC-1 IC50
Protocol: Cellular Proliferation Assay to Determine Compound Inhibition of Cancer Cell Growth
Viable cells were measured after 3 days of compound treatment using the CellTiter-Glo assay (Promega, G7570). Assay was performed following the manufacture protocol.

[4] = molecular target: human tankyrase 1 PARP catalytic domain, TNKS1P (Homo sapiens (Human), UniProt O95271); assay: TNKS1 autoparsylation assay (LC/MS detection of nicotinamide); settings: read-out: TNKS1 AP IC50, 20 nM enzyme, 250 μM β-NAD+, 60 min
Protocol: (§1) Biochemical Assay to Determine Compound Inhibition of TNKS Enzyme Activity
(§2) The autoparsylation activity of the TNKS 1/2 or PARP1/2 enzymes was measured by the liquid chromatography-mass spectrometry (LC/MS) detection of nicotinamide as readout. Compound activity in inhibiting the TNKS and PARP autoparsylation was evaluated by IC50 measurements. […] For the background control wells, 10 μL of the 5× quenching solution per well was added prior to the addition of β-NAD^+. The % Inhibition was calculated as: (Control−Sample)/(Control−Background)*100.

[5] = molecular target: tankyrase 2 protein PARP domain, TNKS2P (Homo sapiens (Human), UniProt Q9H2K2); assay: TNKS2 autoparsylation assay (LC/MS detection of nicotinamide); settings: read-out: TNKS2 AP IC50, 20 nM enzyme, 250 μM β-NAD+, 60 min
Sequence of tankyrase 2 protein PARP domain, TNKS2P (Q9H2K2 959-1164): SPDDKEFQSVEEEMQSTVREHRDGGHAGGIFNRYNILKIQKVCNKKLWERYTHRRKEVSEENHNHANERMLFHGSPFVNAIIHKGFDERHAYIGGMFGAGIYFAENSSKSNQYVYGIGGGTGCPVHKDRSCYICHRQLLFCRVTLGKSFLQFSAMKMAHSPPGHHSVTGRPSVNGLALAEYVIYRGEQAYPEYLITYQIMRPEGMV
Protocol: as §1, §2

Sequence of human tankyrase 1 PARP catalytic domain, TNKS1P (O95271 1112-1317): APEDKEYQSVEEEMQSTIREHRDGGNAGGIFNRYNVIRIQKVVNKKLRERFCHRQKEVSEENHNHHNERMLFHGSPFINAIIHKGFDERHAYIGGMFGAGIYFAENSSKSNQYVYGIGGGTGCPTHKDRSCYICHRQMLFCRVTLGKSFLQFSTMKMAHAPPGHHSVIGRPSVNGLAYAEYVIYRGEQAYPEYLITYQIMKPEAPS

IC50 [3] [nM] | IC50 [4] [nM] | IC50 [5] [nM] | Compound | IC50 [1] [nM] | AC50 [2] [nM]
484 | 575 ± 25 | 353 ± 8 | COc1ccc(C(=O)C2CCN(CC(=O)NCc3nc4c(c(=O)[nH]3)CCCCC4)CC2)cc1 [Example 6, 2-(4-(4-Methoxybenzoyl)piperidin-1-yl)-N-((4-oxo-4,5,6,7,8,9-hexahydro-3H-cyclohepta[d]pyrimidin-2-yl)methyl)acetamide] | 56 ± 7 | 293 ± 8
2800 | 1190 ± 150 | 170 ± 30 | O=C(CN1CCC(c2nnc(-c3ccccc3)o2)CC1)NCc1nc2c(c(=O)[nH]1)COCC2 [Example 52, N-(4-Oxo-3,5,7,8-tetrahydro-4H-pyrano[4,3-d]pyrimidin-2-ylmethyl)-2-[4-(5-phenyl-[1,3,4]oxadiazol-2-yl)-piperidin-1-yl]-acetamide] | 155 ± 8 | 1090 ± 170
26 | 3100 ± 400 | 760 ± 15 | O=C(CN1CCC2(CCc3ccccc3C2=O)CC1)NCc1nc2c(c(=O)[nH]1)COCC2 [Example 65, 2-(1-oxo-3,4-dihydro-1H-spiro[naphthalene-2,4′-piperidine]-1′-yl)-N-((4-oxo-4,5,7,8-tetrahydro-3H-pyrano[4,3-d]pyrimidin-2-yl)methyl)acetamide] | 0.7 ± 0.2 | 12 ± 3
75 | 31 ± 1 | 5 ± 1 | O=C(c1ccccc1)C1CCN(CC(=O)N(Cc2nc3c(c(=O)[nH]2)COCC3)CC(F)F)CC1 [Example 68, 2-(4-Benzoyl-piperidin-1-yl)-N-(2,2-difluoro-ethyl)-N-(4-oxo-3,5,7,8-tetrahydro-4H-pyrano[4,3-d]pyrimidin-2-ylmethyl)-acetamide] | 5.2 ± 0.8 | 41 ± 7
96 | 420 ± 110 | 85 ± 20 | COc1ccccc1C(=O)C1CCN(CC(=O)N(Cc2nc3c(c(=O)[nH]2)COCC3)CC(F)F)CC1 [Example 72, N-(2,2-Difluoro-ethyl)-2-[4-(2-methoxy-benzoyl)-piperidin-1-yl]-N-(4-oxo-3,5,7,8-tetrahydro-4H-pyrano[4,3-d]pyrimidin-2-ylmethyl)-acetamide] | 8.7 ± 0.3 | 52 ± 28
236 | 105 ± 1 | 32 ± 1 | O=C(c1ccccn1)C1CCN(CC(=O)N(Cc2nc3c(c(=O)[nH]2)COCC3)CC2CC2)CC1 [Example 76, N-Cyclopropylmethyl-N-(4-oxo-3,5,7,8-tetrahydro-4H-pyrano[4,3-d]pyrimidin-2-ylmethyl)-2-[4-(pyridine-2-carbonyl)-piperidin-1-yl]-acetamide] | 32 ± 10 | 176 ± 14
26 | 3020 ± 49 | 815 ± 28 | O=C(CN1CCC(C(=O)N2CCc3ccccc3C2)CC1)NCc1nc2c(c(=O)[nH]1)COCC2 [Example 79, N-((4-Oxo-4,5,7,8-tetrahydro-3H-pyrano[4,3-d]pyrimidin-2-yl)methyl)-2-(4-(1,2,3,4-tetrahydroisoquinoline-2-carbonyl)piperidin-1-yl)acetamide] | 6.5 ± 2.7 | 27 ± 3
38 | 42 ± 2 | 18 | COc1ccc(C(=O)C2CCN(CC(=O)NCc3nc4c(c(=O)[nH]3)COCC4)CC2)cc1OC [Example 90, 2-[4-(3,4-Dimethoxy-benzoyl)-piperidin-1-yl]-N-(4-oxo-3,5,7,8-tetrahydro-4H-pyrano[4,3-c]pyrimidin-2-ylmethyl)-acetamide] | 10.3 ± 0.8 | 20 ± 5

More lines, now with the values behind:

Compound | IC50 [3] [nM] | IC50 [4] [nM] | IC50 [5] [nM] | IC50 [1] [nM] | AC50 [2] [nM]
COc1ccc(C(=O)C2CCN(CC(=O)N(Cc3nc4c(c(=O)[nH]3)CCCCC4)CC3CC3)CC2)cc1 [Example 7, N-(Cyclopropylmethyl)-2-(4-(4-methoxybenzoyl)piperidin-1-yl)-N-((4-oxo-4,5,6,7,8,9-hexahydro-3H-cyclohepta[d]pyrimidin-2-yl)methyl)acetamide] | 691 | 714 ± 5 | 371 ± 3 | 180 ± 70 | 680 ± 90
O=C(c1ccc(F)cc1)C1CCN(CC(=O)N(Cc2ccccc2)Cc2nc3c(c(=O)[nH]2)COCC3)CC1 [Example 38, N-Benzyl-2-(4-(4-fluorobenzoyl)piperidin-1-yl)-N-((4-oxo-4,5,7,8-tetrahydro-3H-pyrano[4,3-d]pyrimidin-2-yl)methyl)acetamide] | 833 | 82 ± 1 | – | – | 372 ± 86
COCCN(Cc1nc2c(c(=O)[nH]1)COCC2)C(=O)CN1CCC(c2nnc(-c3ccccc3)o2)CC1 [Example 53] | 2160 | 1130 ± 270 | 142 ± 19 | 430 ± 50 | 2100 ± 200
O=C(CN1CCC(c2nnc(-c3ccc(F)cc3)o2)CC1)NCc1nc2c(c(=O)[nH]1)COCC2 [Example 55, 2-{4-[5-(4-Fluoro-phenyl)-[1,3,4]oxadiazol-2-yl]piperidin-1-yl}-N-(4-oxo-3,5,7,8-tetrahydro-4H-pyrano[4,3-d]pyrimidin-2-ylmethyl)-acetamide] | 83 | 487 ± 16 | 78 ± 4 | 4.7 ± 1.8 | 25 ± 5
O=C(CN1CCC2(CC1)Cc1cc(F)ccc1C2=O)N(Cc1nc2c(c(=O)[nH]1)COCC2)CC1CC1 [Example 62, N-(Cyclopropylmethyl)-2-(5-fluoro-1-oxo-1,3-dihydrospiro[indene-2,4′-piperidine]-1′-yl)-N-((4-oxo-4,5,7,8-tetrahydro-3H-pyrano[4,3-d]pyrimidin-2-yl)methyl)acetamide] | 470 | 17 ± 1 | 4 ± 1 | 115 ± 17 | 560 ± 150
COc1ccc2c(c1)CC1(CCN(CC(=O)N(Cc3nc4c(c(=O)[nH]3)COCC4)CC3CC3)CC1)C2=O [Example 63, N-(Cyclopropylmethyl)-2-(5-methoxy-1-oxo-1,3-dihydrospiro[indene-2,4′-piperidine]-1′-yl)-N-((4-oxo-4,5,7,8-tetrahydro-3H-pyrano[4,3-d]pyrimidin-2-yl)methyl)acetamide] | 158 | 10 ± 1.4 | 1 ± 1.4 | 11.9 ± 3.1 | 137 ± 31
COc1ccc2c(c1)CC1(CCN(CC(=O)N(Cc3nc4c(c(=O)[nH]3)COCC4)CC(F)F)CC1)C2=O [Example 64, N-(2,2-Difluoro-ethyl)-2-(5-methoxy-1-oxo-1,3-dihydrospiro[indene-2,4′-piperidine]-1′-yl)-N-((4-oxo-4,5,7,8-tetrahydro-3H-pyrano[4,3-d]pyrimidin-2-yl)methyl)acetamide] | 12 | 10 ± 1.4 | 2.5 ± 0.7 | 1.2 ± 0.5 | 9 ± 3
O=C(c1ccc(Cl)cc1)C1CCN(CC(=O)N(Cc2nc3c(c(=O)[nH]2)COCC3)CC(F)F)CC1 [Example 69, 2-[4-(4-Chloro-benzoyl)-piperidin-1-yl]-N-(2,2-difluoro-ethyl)-N-(4-oxo-3,5,7,8-tetrahydro-4H-pyrano[4,3-c]pyrimidin-2-ylmethyl)-acetamide] | 709 | 35 ± 4 | 18 ± 1 | 20 ± 9 | 930 ± 450
O=C(c1cccc(OC(F)(F)F)c1)C1CCN(CC(=O)N(Cc2nc3c(c(=O)[nH]2)COCC3)CC(F)F)CC1 [Example 74, N-(2,2-Difluoro-ethyl)-N-(4-oxo-3,5,7,8-tetrahydro-4H-pyrano[4,3-d]pyrimidin-2-ylmethyl)-2-[4-(3-trifluoromethoxy-benzoyl)-piperidin-1-yl]-acetamide] | 590 | 155 ± 15 | 38 ± 4 | 35.1 ± 3.4 | 508 ± 50
O=C(c1ccc(OCc2ccccc2)cc1)C1CCN(CC(=O)N(Cc2nc3c(c(=O)[nH]2)COCC3)CC2CC2)CC1 [Example 77] | 2710 | 1170 ± 50 | 764 ± 51 | 55 ± 8 | 4480 ± 90
